Results on twelve compounds are retold here after patent US5461049A, “Amide tetrazole ACAT inhibitors” (Warner-Lambert Company, priority 1994, dated 1995).

Experiment [1] addresses T1, acyl-CoA: cholesterol acyltransferase (ACAT) (Rattus norvegicus, UniProt Q7TQM4).
T1 construct: tissue preparation containing rat liver microsomes; from tissue; host or cells: rat liver microsomes
T1 sequence (Q7TQM4 1-524): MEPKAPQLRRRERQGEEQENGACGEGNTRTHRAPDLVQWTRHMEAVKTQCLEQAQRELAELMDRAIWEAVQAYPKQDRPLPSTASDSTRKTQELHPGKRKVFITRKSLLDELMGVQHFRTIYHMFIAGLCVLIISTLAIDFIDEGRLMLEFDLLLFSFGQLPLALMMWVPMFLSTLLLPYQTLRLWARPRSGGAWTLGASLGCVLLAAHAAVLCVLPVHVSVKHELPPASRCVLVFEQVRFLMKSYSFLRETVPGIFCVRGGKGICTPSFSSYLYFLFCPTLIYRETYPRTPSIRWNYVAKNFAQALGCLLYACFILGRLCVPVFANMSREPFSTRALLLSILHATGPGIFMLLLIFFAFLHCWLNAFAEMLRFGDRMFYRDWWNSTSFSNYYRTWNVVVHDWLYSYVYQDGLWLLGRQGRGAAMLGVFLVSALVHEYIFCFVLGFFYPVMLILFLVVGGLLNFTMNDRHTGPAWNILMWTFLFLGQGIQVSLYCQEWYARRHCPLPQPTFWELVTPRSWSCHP
The experiment can be described thus: ACAT inhibition in vitro (LAI): radiolabeled cholesterol oleate formed from radiolabeled oleic acid in rat liver microsomes. The class given is biochemical. The following applies: concentration required to inhibit the activity of the enzyme by 50%. As for the experimental part: The ability of representative compounds of the present invention to inhibit ACAT was measured using an in vitro test more fully described in F. J. Field and R. G. Salone, Biochemica et Biophysica Acta, 712:557-570 (1982). The test assesses the ability of a test compound to inhibit the acylation of cholesterol by oleic acid by measuring the amount of radiolabeled cholesterol oleate formed from radiolabeled oleic acid in a tissue preparation containing rat liver microsomes (designated LAI).
(In general: Microsomes from liver hold many membrane-bound enzymes, among them those of drug oxidation.)

The nature of experiment [2]: APCC in vivo screen: change in total cholesterol in rats on high fat, high cholesterol diet. As to conditions: Rattus norvegicus, po, 16 h; 30 mg/kg by gavage, single dose at 4 PM, sacrificed at 8 AM; 5.5% peanut oil, 1.5% cholesterol, 0.5% cholic acid diet; vs control animals given vehicle and diet only; read-out: APCC (% change in TC). Also on record: species or system male Sprague-Dawley rats. The source says: In one in vivo screen designated APCC, male Sprague-Dawley rats (200-225 g body weight) were randomly divided into treatment groups and dosed at 4 PM with either vehicle (CMC/Tween) or suspensions of invention compounds in vehicle. The normal chow diet was then replaced with a high fat, high cholesterol diet (5.5% peanut oil, 1.5% cholesterol, and 0.5% cholic acid). The rats consumed this diet ad libitum during the night and were sacrificed at 8 AM to obtain blood samples for cholesterol analysis using standard procedures. Statistical differences between mean cholesterol values for the same vehicle were determined using analysis of variance followed by Fisher's least significant test. The results of this trial for representative compounds of the present invention also appear in Table I as the percent change in total cholesterol (%TC) from control animals given vehicle and diet only. All compounds in the APCC test reported in Table 1 were administered by garage at 30 mg/kg.

In the case of `CCCCCCCCCCCCn1nnc(C(C(=O)Nc2c(C(C)C)cccc2C(C)C)N2CCSCC2)n1` (racemic) [Example 1, (±)-N-(2,6-diisopropylphenyl) -2-(2-dodecyl-2H-tetrazol-5-yl) -2-thiomorpholin-4-yl-acetamide], the IC50 in experiment [1] was found to be 12 nM. Besides, the change in vivo at 30 mg/kg in experiment [2] is -56%. In the same order, the values of `CCCCCCCCCCCCn1nnc(C(C(=O)Nc2c(C(C)C)cccc2C(C)C)N2CCOCC2)n1` (racemic) [Example 2, (±)-N-(2,6-Diisopropylphenyl)-2-(2-dodecyl-2H-tetrazol-5-yl)-2-morpholino-4-yl-acetamide] are 18 nM and -57%. For `CCCCCCCCCCCCn1nnc(C(C(=O)Nc2c(C(C)C)cccc2C(C)C)N2CCCCC2)n1` (racemic) [Example 3, (±)-N-(2,6-Diisopropylphenyl)-2-(2-dodecyl-2H-tetrazol-5-yl)-2-piperidin-1-yl-acetamide], in that order: 15 nM and -47%. For `CCCCCCCCCCCCn1nnc(C(C(=O)Nc2c(C(C)C)cccc2C(C)C)N2CCCC2)n1` (racemic) [Example 4, (±) -N-(2,6-Diisopropylphenyl)-2-(2-dodecyl-2H-tetrazol-5-yl) -2-pyrrolidinyl-1-yl-acetamide], in that order: 9 nM and -59%.

With `CCCCCCCCCCCCn1nnc(C(C(=O)Nc2c(C(C)C)cccc2C(C)C)n2ccnc2)n1` (racemic) [Example 5, (±)-N-(2,6-Diisopropylphenyl)-2-(2-dodecyl-2H-tetrazol-5-yl) -2-imidazol-1-yl-acetamide], the IC50 in experiment [1] came out at 215 nM. Further, the change in vivo at 30 mg/kg in experiment [2] is -46%. For `CCCCCCCCCCCCn1nnc(C(C(=O)Nc2c(C(C)C)cccc2C(C)C)N2CCN(C)CC2)n1` (racemic) [Example 6, (±)-N-(2,6-Diisopropylphenyl)-2-(2-dodecyl-2-tetrazol-5-yl)-2-(4-methyl-piperazin-1-yl)-acetamide], in that order: 86 nM and -51%. For `CCCCCCCCCCCCn1nnc(C(C(=O)Nc2c(C(C)C)cccc2C(C)C)N(CC)CC)n1` (racemic) [Example 7, (±)-2-Diethylamino-N-(2,6-diisopropylphenyl) -2-(2-dodecyl-2H-tetrazol-5-yl)-acetamide], the IC50 in experiment [1] amounted to 32 nM. Further, in experiment [2], the change in vivo at 30 mg/kg was -28%. For `CCCCCCCCCCCCn1nnc(C(C(=O)Nc2c(C(C)C)cccc2C(C)C)N(CCO)CCO)n1` (racemic) [Example 8, (±)-2-[Bis-(2-hydroxyethyl)-amino]-N-(2,6-diisopropylphenyl) -2-(2-dodecyl-2H-tetrazol-5-yl)-acetamide], in that order: 390 nM and -11%. For `CCCCCCCCCCCCn1nnc(C(C(=O)Nc2c(C(C)C)cccc2C(C)C)N(C)C)n1` (racemic) [Example 9, (±)-N-(2,6-Diisopropylphenyl)-2-dimethylamino-(2-dodecyl-2H-tetrazol-5-yl)-acetamide], in that order: 40 nM and -40%. Take `CCCCCCCCCCCCn1nnc(C(NC2CCCCC2)C(=O)Nc2c(C(C)C)cccc2C(C)C)n1` (racemic) [Example 36, (±)-N-(2,6-diisopropylphenyl)-2-(2-dodecyl-2H-tetrazol-5-yl)-2-cyclohexylamino-acetamide]: in experiment [1], the midpoint of inhibition, the IC50, lay at 212 nM.

The compound `CCCCCCCCCCCCn1nnc(C(=NO)C(=O)Nc2c(C(C)C)cccc2C(C)C)n1` [Example 12, N-(2,6-diisopropylphenyl)-2-(2-dodecyl-2H-tetrazol-5-yl)-2-hydroxyimino-acetamide] displayed an IC50 in experiment [1] of 29 nM. Still for that read-out and setting: the figure for `CCCCCCCCCCCCn1nnc(C(=NN)C(=O)Nc2c(C(C)C)cccc2C(C)C)n1` [Example 27, N-(2,6-diisopropylphenyl)-2-(2 dodecyl-2H-tetrazol-5-yl)-2-hydrazono-acetamide] is 510 nM.

As a reminder, the IC50 is the concentration at which inhibition is half-maximal. A lower IC50 goes with inhibition by little substance.
